Laboratory results taken from patent US11851710B2, “Methods and materials for identifying metastatic malignant skin lesions and treating skin cancer” (Mayo Foundation for Medical Education and Research, priority 2014, dated 2023).
“And” between values parts separate entries of the source, which are not always exact repeats. Identical values can stand only once. Like-named read-outs stand apart in the source and are kept apart here.

Experiments:
SPP1 promoter = SPP1 promoter dual luciferase (DUAL-GLO) screen of LOPAC library in WM858 cells; format: cell-based; settings: WM858 cells with luciferase-tagged SPP1 promoter
Description: FIG. 14 depict the luciferase construct for high-throughput screening. Genomic structure of the SPP1 gene is shown as well as a targeting approach. A DNA double-strand break was induced in exon (E) 2 of SPP1, 3′ of the ATG start codon by a custom-made zinc finger nuclease (ZFN), arrow. A targeting vector with 500 bp homology arms (HA, middle), Hygromycin resistance (HYGRO), a target promoter-driven firefly luciferase (LUC2P), and a CMV-pomoter driven renilla luciferase (HRLUC) was offered for repair at the time of the double-strand break. PA, PA terminator signal. Blue boxes, untranslated region; black boxes, translated region.
Osteopontin (SPP1) is a proto-typical cancer-associated extracellular matrix gene and ligand of αv and α5β1 integrins. SPP1 is highly overexpressed in melanoma (Talantov et al., Clin. Cancer Res. 11:7234-42 (2005)) and its upregulation correlates with metastasis risk (Conway et al., Clin. Cancer Res. 15:6939-6946 (2009) and Mitra et al., Br. J. Cancer 103:1229-1236 (2010)). To rapidly screen chemical compounds for their ability to inhibit SPP1 expression in vitro, the endogenous SPP1 promoter of WM858 melanoma cells was tagged with a dual luciferase system using zinc finger nucleases. The SPP1-promoter drives firefly luciferase tagged with a protein degradation sequence (hPEST). A CMV-promoter driven renilla luciferase was used as a loading control (FIG. 14). […]

in vitro [1] = format: cell-based; settings: human
Description: (§1) Pentamidine inhibited SPP1 mRNA in both WM858 (FIG. 15C) and M12 cells (FIG. 15D). […] Next, a red-fluorescent nuclear protein was stably expressed in M12 cells to automatically count nuclei over time (using the IncuCyte ZOOM system, Essen Bioscience), a surrogate measure of cell proliferation. Pentamidine reduced M12 proliferation with an ED50 of 40 μM.

in vitro [2] = format: cell-based; settings: human; remark: listed apart in the source
Description: as §1

SPP1 mRNA [3] = assay: SPP1 mRNA by quantitative PCR in WM858 cells; format: cell-based
Description: (§2) FIGS. 15A-15J illustrate that pentamidine inhibits SPP1 expression, proliferation, and invasion of melanoma cells. […] FIGS. 15B-15D illustrate that pentamidine inhibits SPP1 promoter activity in the DUAL-GLO® assay (FIG. 15B), but also by quantitative PCR in normal WM858 (FIG. 15C) and M12 cells (FIG. 15D). […] FIG. 15I is a chart illustrating that pentamidine injections reduce SPP1, ([…], and t-PA (PLAT) mRNA expression in M12 PDX. Average of three mice is shown. PENTA, Pentamidine; DABRA, Dabrafenib. WM858 and M12 are B-rafV600E metastatic melanoma cells.
as §1

SPP1 mRNA [4] = assay: SPP1 mRNA by quantitative PCR in M12 cells; format: cell-based, human
Description: as §2, §1

β3 integrin (ITGB3) = assay: Expression of β3 integrin (ITGB3) in melanoma cells; format: cell-based; settings: FIG. 15E
Description: as §2, §1

t-PA (PLAT) = assay: Expression of t-PA (PLAT) in melanoma cells; format: cell-based; settings: FIG. 15E
Description: as §2, §1

M12 cells [5] = assay: M12 proliferation, automated count of red-fluorescent nuclei (IncuCyte ZOOM); format: cell-based; settings: Homo sapiens, nuclei counted over time, read-out: M12 proliferation ED50
Description: Automated quantification of cell proliferation was by the INCUCYTE™ kinetic imaging system (Essen Bioscience). Approximately 2,000 cells were seeded into a 96-well cell culture dish, eight replicates per condition over the indicated time. Data analysis was with the INCUCYTE ZOOM software package.
as §1

M12 cells [6] = assay: M12 invasion into Matrigel-embedded scratch wounds; format: cell-based, human; settings: 2 mg/mL Matrigel, compared with Dabrafenib
Description: as §2, §1

[7] = Tolerability of i.m. Pentamidine in nude mice with intradermal M12 xenografts; format: in vivo; settings: six consecutive days, female nude mice
Description: (§3) To determine whether Pentamidine reduces SPP1 expression in vivo, M12 cells were injected intradermally into female nude mice and left to grow until xenograft tumors formed (FIGS. 15H and 15I). Then, four different doses of Pentamidine were injected intramuscularly (i.m.) into groups of three mice for six consecutive days. It was previously shown that serum concentration in patients injected with 4 mg/kg Pentamidine i.m. daily (FDA labeling) range from 0.2-1.4 μg/mL (0.3-2.4 μM). In rats, slightly lower levels can be achieved using 10 mg/kg i.m. daily (0.1-0.4 μg/mL) (Bernard et al., J. Inf. Dis. 152:750-754 (1985) and Waalkes et al., Clin. Pharma. Therap. 11:505-512 (1969)). In the current study, at the highest Pentamidine dose (80 mg/kg/daily), all mice died. Mice survived at 40 mg/kg/day, but appeared sick. […] Tumors were subsequently harvested, lysed, and analyzed by quantitative PCR. All doses of Pentamidine led to a reduction of SPP1, β3 integrin, and t-PA (PLAT) mRNA expression in tumor tissue (FIG. 15J).

SPP1 mRNA [8] = assay: SPP1 mRNA in M12 xenograft tumor tissue by quantitative PCR; format: in vivo, mice; settings: all doses i.m. for six days
Description: as §2
as §3, with “(1969)).” for “(1969)). In the current study, at the highest Pentamidine dose (80 mg/kg/daily), all mice died. Mice survived at 40 mg/kg/day, but appeared sick.”, “All doses of Pentamidine led to a reduction of SPP1, β3 integrin, and t-PA (PLAT) mRNA expression in tumor tissue (FIG. 15J).” left out

β3 integrin mRNA = β3 integrin mRNA in M12 xenograft tumor tissue by quantitative PCR; format: in vivo, mice; settings: all doses i.m. for six days
Description: as §2
as §3, with “(1969)).” for “(1969)). In the current study, at the highest Pentamidine dose (80 mg/kg/daily), all mice died. Mice survived at 40 mg/kg/day, but appeared sick.”, “All doses of Pentamidine led to a reduction of SPP1, β3 integrin, and t-PA (PLAT) mRNA expression in tumor tissue (FIG. 15J).” left out

t-PA (PLAT) mRNA = t-PA (PLAT) mRNA in M12 xenograft tumor tissue by quantitative PCR; format: in vivo, mice; settings: all doses i.m. for six days
Description: as §2
as §3, with “(1969)).” for “(1969)). In the current study, at the highest Pentamidine dose (80 mg/kg/daily), all mice died. Mice survived at 40 mg/kg/day, but appeared sick.”, “All doses of Pentamidine led to a reduction of SPP1, β3 integrin, and t-PA (PLAT) mRNA expression in tumor tissue (FIG. 15J).” left out

[9] = patients, 4 mg/kg i.m. daily (FDA labeling); cited from earlier work
[10] = rats, 10 mg/kg i.m. daily; cited from earlier work
β3 integrin = assay: Cell surface β3 integrin expression by flow cytometry after overnight drug incubation; format: cell-based; settings: B-rafV600E melanoma cells, 5 μM
Description: (§4) FIGS. 13A-13P illustrate B-raf^V600E inhibits FAK to promote integrin surface expression. FIG. 13A: shRNAs 841, 102 and NC were induced in WM858 cells by IPTG for 5 days (n=4) followed by RNA quantitation. Genes regulated at 0 vs. 0.05 mM IPTG in 841 and 102 but not NC cells are shown. These were: ITGB3 (orange), FAK (blue). Light orange, light blue: up- or down-regulation, respectively, by either 841 or 102 shRNA. FIG. 13B: WM858 cells were transfected with FAK or EGFP cDNA. Regulated genes, FAK over EGFP cells, are shown in orange (up) or blue (down) (n=4). FIG. 13C: Flow cytometry of NC, 841 and 102 cells (un-induced vs. 0.05 mM IPTG for 5 days). FIG. 13D: Integrin cell surface mean intensities; mean.+−.s.d.; n=3; *, p<0.05; p values, Student's t-test; ns, not significant. FIG. 13E: Visualization of focal adhesions by paxillin staining on micropatterned fibronectin disks. FIGS. 13F and 13G: Proliferation speed in the absence (FIG. 13F) or presence (FIG. 13G) of FAK shRNAs; mean.+−.s.d.; n=8; *, p<0.05; p values, Student's t-test; ns, not significant. FIGS. 13H and 13I: Scratch wound healing in IPTG-induced cells; representative experiment (n=3). FIGS. 13J and 13K: Effect of IPTG-induced FAK knock-down on total (t) and phospho (p)-ERK; mean.+−.s.d.; n=4; *, p<0.05; p values, Student's t-test. FIG. 13L: Cell surface β1 and β3 integrin expression (flow cytometry) in B-raf^V600E and wild-type cells after overnight drug incubation; % expression relative to DMSO is shown. FIGS. 13M-13O: FAK/ERK levels in NHM and WM858 after overnight drug incubation (FIG. 13M); quantification of FAK (FIG. 13N) and ERK phosphorylation (FIG. 13O); mean.+−.s.d.; n=4; *, p<0.05; p values, Student's t-test. FIG. 13P: ERK activity in NC, 841 and 102 cells (0.05 mM IPTG for 5 days) after overnight drug incubation.
Isopropyl β-D-1-thiogalactopyranoside (IPTG), 4′,6-Diamidino-2-phenylindole dihydrochloridemitomycin (DAPI), blebbistatin and PF-573228 were purchased from Sigma-Aldrich. Dabrafenib (GSK2118436) was purchased from Selleckchem. FAK antibody (06-543) was from EMD MILLIPORE®. FAK pY397 (44624G) antibody was from Life Technologies. Total ERK (9102) and phospho-ERK (4370) antibodies were from Cell Signaling. Paxillin (610051), ITGB3 (555754), ITGB1 (555443) and mouse IgG1 kappa (555749) antibodies were from BD Transduction Labs. Drugs were used at 5 μM final concentration. EGFP control cDNA was from (Lonza). […]
PYK2, a FAK-like tyrosine kinase, could not be detected in WM858 cells, irrespective of endogenous FAK levels. WM858 cells carrying control (NC) or FAK-specific shRNAs (841 and 102) were then exposed to IPTG for 5 days, and changes in adhesion gene expression were subsequently quantified by PCR. […]

β1 integrin = assay: Cell surface β1 integrin expression by flow cytometry after overnight drug incubation; format: cell-based; settings: 5 μM
Description: as §4
Isopropyl β-D-1-thiogalactopyranoside (IPTG), 4′,6-Diamidino-2-phenylindole dihydrochloridemitomycin (DAPI), blebbistatin and PF-573228 were purchased from Sigma-Aldrich. Dabrafenib (GSK2118436) was purchased from Selleckchem. FAK antibody (06-543) was from EMD MILLIPORE®. FAK pY397 (44624G) antibody was from Life Technologies. Total ERK (9102) and phospho-ERK (4370) antibodies were from Cell Signaling. Paxillin (610051), ITGB3 (555754), ITGB1 (555443) and mouse IgG1 kappa (555749) antibodies were from BD Transduction Labs. Drugs were used at 5 μM final concentration. EGFP control cDNA was from (Lonza). FAK cDNA was obtained from A. Huttenlocher, Addgene plasmid number 35039 (Chan et al., J. Biol. Chem., 285:11418-26 (2010)).
PYK2, a FAK-like tyrosine kinase, could not be detected in WM858 cells, irrespective of endogenous FAK levels. WM858 cells carrying control (NC) or FAK-specific shRNAs (841 and 102) were then exposed to IPTG for 5 days, and changes in adhesion gene expression were subsequently quantified by PCR. […] Moreover, Dabrafenib-induced blockage of ERK activity could be partially reversed by a complete FAK knock-down in 102 cells (FIG. 13P).

Compound | Normalized ratio: firefly signal normalized to renilla signal, then to DMSO-treated control wells (SPP1 promoter) | EC50 (in vitro [1]) [µM] | EC50 (in vitro [2]) [µM] | SPP1 mRNA (SPP1 mRNA [3]) | SPP1 mRNA (SPP1 mRNA [4]) | expression of β integrin (β3 integrin (ITGB3)) | expression of t-PA (PLAT) (t-PA (PLAT)) | EC50 (M12 cells [5]) [µM] | Matrigel invasion (M12 cells [6]) | survival / tolerability of mice ([7]; 40 mg/kg/day i.m.) | survival / tolerability of mice ([7]; 80 mg/kg/daily i.m.) | survival / tolerability of mice ([7]; other two doses, specifically 8 mg/kg/day i.m.) | SPP1 mRNA expression in tumor tissue (SPP1 mRNA [8]) | β3 integrin mRNA expression in tumor tissue (β3 integrin mRNA) | t-PA (PLAT) mRNA expression in tumor tissue (t-PA (PLAT) mRNA) | serum concentration [9] | serum concentration [10] [ng/mL] | β3 integrin surface levels (β3 integrin) | β1 integrin surface levels (β1 integrin; B-raf wild-type melanoma cells) | β1 integrin surface levels (β1 integrin; B-rafV600E melanoma cells)
N=C(N)c1ccc(OCCCCCOc2ccc(C(=N)N)cc2)cc1 [Pentamidine, 4,4′-[pentane-1,5-diylbis(oxy)]dibenzenecarboximidamide] | < 0.25 | > 100 | > 100 | inhibited | inhibited | reduced | reduced | 40 | more effectively than Dabrafenib | appeared sick | all mice died | well tolerated | reduction | reduction | reduction | 0.2-1.4 μg/mL and 0.3-2.4 μM | 100 to 400 | – | – | –
Cc1ccc2c(c1)C(=O)C1(O)CCN(c3ccccc3)C1=N2 (centres unmarked) [blebbistatin] | – | – | – | – | – | – | – | – | – | – | – | – | – | – | – | – | – | induced | not | induced
